Among the data in ChEMBL document CHEMBL5465560, “Selectivity Literature for EUbOPEN Chemogenomic Library” (2024) are % of control and % of inhibition values, retold here.

Assay [1] addresses Casein kinase I isoform alpha (Homo sapiens, UniProt P48729). The assay can be described thus: Selectivity interaction (Kinase panel (Z-LYTE Assay)) EUB0001632a CSNK1A1. Particulars: at 10 µM.
Assay [2] deals with Serine/threonine-protein kinase PAK 1 (Homo sapiens) (UniProt Q13153). The assay can be described thus: Selectivity interaction (Kinase panel (Eurofins)) EUB0001564a PAK1. Particulars: at 1 µM.
Assay [3] deals with LIM domain kinase 1 (Homo sapiens) (UniProt P53667). The assay can be described thus: Selectivity interaction (KinomeScan (DiscoverX)) EUB0000666a LIMK1. As to conditions: at 10 µM.
Assay [4] addresses T1, Phosphatidylinositol 3-kinase C2 domain-containing subunit gamma (Homo sapiens) (UniProt O75747).
T1 sequence (whole entry): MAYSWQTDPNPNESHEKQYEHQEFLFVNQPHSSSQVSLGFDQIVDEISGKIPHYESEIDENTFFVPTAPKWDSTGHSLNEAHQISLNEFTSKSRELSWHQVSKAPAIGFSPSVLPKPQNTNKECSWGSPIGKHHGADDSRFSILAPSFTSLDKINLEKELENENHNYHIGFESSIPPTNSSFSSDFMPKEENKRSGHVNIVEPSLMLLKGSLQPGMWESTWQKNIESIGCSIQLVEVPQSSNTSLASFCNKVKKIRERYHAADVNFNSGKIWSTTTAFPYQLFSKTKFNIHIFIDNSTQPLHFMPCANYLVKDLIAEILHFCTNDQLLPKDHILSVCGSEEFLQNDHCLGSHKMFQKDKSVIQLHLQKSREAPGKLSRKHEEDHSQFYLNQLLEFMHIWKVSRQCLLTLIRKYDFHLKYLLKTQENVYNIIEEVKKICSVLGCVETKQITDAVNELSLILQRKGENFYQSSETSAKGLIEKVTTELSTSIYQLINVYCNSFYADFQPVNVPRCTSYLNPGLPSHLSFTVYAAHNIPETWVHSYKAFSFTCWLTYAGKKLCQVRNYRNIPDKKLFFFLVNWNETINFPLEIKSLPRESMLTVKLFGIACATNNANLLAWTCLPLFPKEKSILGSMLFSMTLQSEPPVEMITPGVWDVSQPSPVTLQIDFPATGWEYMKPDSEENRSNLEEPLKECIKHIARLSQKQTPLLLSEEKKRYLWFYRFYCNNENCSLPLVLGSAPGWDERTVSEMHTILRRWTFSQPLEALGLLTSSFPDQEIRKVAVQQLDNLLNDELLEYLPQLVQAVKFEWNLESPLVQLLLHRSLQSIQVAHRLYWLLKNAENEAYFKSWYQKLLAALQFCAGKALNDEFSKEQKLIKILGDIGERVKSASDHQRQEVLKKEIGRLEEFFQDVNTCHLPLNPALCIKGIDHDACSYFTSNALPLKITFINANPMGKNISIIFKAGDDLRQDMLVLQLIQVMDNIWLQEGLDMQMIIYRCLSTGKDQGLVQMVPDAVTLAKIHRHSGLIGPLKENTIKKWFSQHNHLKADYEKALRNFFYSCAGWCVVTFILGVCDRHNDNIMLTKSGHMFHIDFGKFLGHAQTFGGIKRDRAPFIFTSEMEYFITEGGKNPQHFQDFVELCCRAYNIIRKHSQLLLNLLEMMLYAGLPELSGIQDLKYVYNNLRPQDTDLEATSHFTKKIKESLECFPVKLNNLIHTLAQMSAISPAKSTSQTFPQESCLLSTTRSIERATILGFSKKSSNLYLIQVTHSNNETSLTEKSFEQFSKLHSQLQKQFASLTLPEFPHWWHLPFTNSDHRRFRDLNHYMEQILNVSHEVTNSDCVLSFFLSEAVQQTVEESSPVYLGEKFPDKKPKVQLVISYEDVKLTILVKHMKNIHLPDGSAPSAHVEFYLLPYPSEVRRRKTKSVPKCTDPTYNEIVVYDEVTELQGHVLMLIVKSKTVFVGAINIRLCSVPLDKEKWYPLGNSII
As to conditions: at 10 µM.

In assay [5] the target is Serine/threonine-protein kinase 38-like (Homo sapiens) (UniProt Q9Y2H1). The assay is described as follows: Selectivity interaction (KinomeScan (DiscoverX)) EUB0000045b STK38L.
Assay [6] concerns the target T2, Ephrin type-B receptor 2 (Homo sapiens) (UniProt P29323).
T2 sequence (whole entry): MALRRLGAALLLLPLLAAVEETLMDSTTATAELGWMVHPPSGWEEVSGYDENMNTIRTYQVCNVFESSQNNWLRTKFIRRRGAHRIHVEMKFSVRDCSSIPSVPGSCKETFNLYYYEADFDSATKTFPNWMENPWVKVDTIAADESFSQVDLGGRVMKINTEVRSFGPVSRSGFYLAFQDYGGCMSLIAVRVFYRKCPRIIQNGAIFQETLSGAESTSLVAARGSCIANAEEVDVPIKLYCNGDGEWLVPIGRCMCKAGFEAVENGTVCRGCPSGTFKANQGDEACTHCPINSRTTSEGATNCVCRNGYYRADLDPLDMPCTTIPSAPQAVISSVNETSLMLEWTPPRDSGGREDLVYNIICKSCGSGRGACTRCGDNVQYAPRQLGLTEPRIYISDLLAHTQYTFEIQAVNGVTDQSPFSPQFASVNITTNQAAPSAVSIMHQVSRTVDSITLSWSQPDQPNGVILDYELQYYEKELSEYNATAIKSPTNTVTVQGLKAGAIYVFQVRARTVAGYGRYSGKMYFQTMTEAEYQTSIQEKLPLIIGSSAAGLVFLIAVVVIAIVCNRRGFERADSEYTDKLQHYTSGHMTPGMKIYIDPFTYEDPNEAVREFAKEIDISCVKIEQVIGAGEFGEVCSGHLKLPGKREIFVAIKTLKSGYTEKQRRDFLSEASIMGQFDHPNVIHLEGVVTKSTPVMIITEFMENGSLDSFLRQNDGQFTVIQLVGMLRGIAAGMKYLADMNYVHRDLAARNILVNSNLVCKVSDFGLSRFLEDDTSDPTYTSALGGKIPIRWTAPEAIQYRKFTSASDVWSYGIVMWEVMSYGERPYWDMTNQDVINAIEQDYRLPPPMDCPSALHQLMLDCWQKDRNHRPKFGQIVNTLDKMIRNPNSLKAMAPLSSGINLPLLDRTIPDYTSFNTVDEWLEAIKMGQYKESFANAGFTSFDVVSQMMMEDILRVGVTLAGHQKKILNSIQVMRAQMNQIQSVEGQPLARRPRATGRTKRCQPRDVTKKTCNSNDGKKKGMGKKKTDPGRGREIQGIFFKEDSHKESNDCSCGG
The assay is described as follows: Selectivity interaction (Millipore kinase profiler) EUB0000124b EPHB2. As to conditions: at 10 µM.

Serine/threonine-protein kinase 38-like (Homo sapiens), sequence (Q9Y2H1 2-464 limits assumed): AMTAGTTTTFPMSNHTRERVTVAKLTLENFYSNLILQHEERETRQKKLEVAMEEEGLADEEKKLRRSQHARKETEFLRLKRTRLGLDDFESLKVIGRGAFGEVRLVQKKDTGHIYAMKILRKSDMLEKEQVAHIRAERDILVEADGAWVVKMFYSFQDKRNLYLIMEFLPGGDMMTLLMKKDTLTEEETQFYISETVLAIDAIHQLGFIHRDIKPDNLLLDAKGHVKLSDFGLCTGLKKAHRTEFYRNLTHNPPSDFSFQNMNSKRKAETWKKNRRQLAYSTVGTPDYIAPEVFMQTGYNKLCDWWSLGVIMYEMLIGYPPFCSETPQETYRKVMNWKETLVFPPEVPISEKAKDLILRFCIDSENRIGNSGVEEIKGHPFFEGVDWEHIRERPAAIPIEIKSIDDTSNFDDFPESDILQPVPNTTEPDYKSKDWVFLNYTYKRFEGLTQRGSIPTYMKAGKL
LIM domain kinase 1 (Homo sapiens), sequence (P53667 whole entry, looked up, the tested form may be a part): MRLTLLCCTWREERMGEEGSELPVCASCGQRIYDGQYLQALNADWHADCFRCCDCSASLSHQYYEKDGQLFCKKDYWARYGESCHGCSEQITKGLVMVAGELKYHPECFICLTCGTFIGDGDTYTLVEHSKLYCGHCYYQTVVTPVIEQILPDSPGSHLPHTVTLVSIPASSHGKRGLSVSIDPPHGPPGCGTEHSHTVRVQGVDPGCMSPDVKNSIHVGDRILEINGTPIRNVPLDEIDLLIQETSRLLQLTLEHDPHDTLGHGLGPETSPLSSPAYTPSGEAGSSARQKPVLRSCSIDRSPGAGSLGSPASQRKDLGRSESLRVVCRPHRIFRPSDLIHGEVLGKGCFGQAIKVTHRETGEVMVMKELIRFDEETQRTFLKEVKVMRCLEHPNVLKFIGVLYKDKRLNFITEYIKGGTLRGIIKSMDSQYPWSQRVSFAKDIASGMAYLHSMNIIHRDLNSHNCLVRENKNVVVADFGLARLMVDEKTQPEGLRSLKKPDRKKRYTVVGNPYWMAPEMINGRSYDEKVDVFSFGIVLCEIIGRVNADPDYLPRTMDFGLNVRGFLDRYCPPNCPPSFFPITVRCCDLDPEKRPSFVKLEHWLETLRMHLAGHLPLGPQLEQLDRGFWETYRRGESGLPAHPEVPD
Casein kinase I isoform alpha, sequence (P48729 2-337 limits assumed): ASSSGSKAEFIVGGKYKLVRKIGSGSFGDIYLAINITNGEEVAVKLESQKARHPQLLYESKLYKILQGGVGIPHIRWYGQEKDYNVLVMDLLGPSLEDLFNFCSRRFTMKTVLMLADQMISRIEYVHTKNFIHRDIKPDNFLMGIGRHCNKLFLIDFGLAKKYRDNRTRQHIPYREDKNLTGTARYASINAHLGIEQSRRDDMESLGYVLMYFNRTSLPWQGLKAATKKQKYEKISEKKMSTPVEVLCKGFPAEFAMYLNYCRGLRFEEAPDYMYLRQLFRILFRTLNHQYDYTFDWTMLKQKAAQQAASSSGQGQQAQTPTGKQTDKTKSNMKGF
Serine/threonine-protein kinase PAK 1 (Homo sapiens), sequence (Q13153 whole entry, the tested form may be a part): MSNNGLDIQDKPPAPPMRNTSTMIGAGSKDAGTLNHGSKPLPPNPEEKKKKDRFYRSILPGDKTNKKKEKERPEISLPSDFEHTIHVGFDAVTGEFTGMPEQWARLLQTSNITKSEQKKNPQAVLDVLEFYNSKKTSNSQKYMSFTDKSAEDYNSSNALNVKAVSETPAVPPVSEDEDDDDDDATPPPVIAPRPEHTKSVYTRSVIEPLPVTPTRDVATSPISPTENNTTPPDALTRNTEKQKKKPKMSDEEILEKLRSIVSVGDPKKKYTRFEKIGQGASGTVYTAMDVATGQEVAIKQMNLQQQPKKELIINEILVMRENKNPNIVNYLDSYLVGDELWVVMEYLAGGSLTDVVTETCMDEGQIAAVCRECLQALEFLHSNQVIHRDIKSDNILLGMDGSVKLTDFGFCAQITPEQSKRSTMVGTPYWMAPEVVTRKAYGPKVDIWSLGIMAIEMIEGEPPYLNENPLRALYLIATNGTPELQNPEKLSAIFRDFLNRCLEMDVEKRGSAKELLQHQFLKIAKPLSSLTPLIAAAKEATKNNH

For the compound `Cn1cc(-n2cnc3c(NCc4nc5cc(Cl)c(Cl)cc5[nH]4)nc(N4CCOCC4)nc32)cn1`, in assay [1], the % of control turned out to be 4.57%.

Take `CC[C@@H](Nc1c(C#N)c(-c2ccc(-c3cccc(C)c3F)cc2)nc2cnccc12)C(=O)O` [BAY-091]: the % of inhibition in assay [2] stood at 23.8%.

The compound `O=C(NOC[C@H](O)CO)c1ccc(F)c(F)c1Nc1ccc(I)cc1F` returned a % of control in assay [3] of 68%.

For `Cc1cc([C@@H](C)Nc2ccccc2C(=O)O)c2nc(N3CCOCC3)cc(=O)n2c1` [AZD-6482], the % of control in assay [4] turned out to be 7%.

For `C=CC(=O)Nc1cc(-n2c(=O)ccc3cnc4ccc(-c5ccc(NS(C)(=O)=O)cc5)cc4c32)ccc1C`, the values for the % of control in assay [5] (at 1 µM) and in assay [5] (at 10 µM) were 100% and 95%, respectively.

For the compound `CC(=O)Nc1cccc(-n2c(=O)n(C3CC3)c(=O)c3c(Nc4ccc(I)cc4F)n(C)c(=O)c(C)c32)c1`, the % of control in assay [6] amounted to 107%.
